Reference: patent US9156829B2, “Cycloalkyl and heterocycloalkyl compounds as orexin receptor antagonists” (Takeda Pharmaceutical Company Limited, priority 2014, dated 2015)
pIC50: −log10 of the molar value.

Columns and labels:
human orexin receptor 1 = human orexin receptor 1 (Homo sapiens (Human), UniProt O43613); assay: Orexin antagonist activity, intracellular calcium FLIPR assay, RBL-2H3 cells expressing human orexin receptor 1; format: cell-based; settings: RBL-2H3 cells stably expressing human orexin receptor 1; orexin-A at approx. 80% maximal response; compound added 15 minutes before; read-out: Human Orexin1R IC50
Chain of human orexin receptor 1 (O43613 whole entry): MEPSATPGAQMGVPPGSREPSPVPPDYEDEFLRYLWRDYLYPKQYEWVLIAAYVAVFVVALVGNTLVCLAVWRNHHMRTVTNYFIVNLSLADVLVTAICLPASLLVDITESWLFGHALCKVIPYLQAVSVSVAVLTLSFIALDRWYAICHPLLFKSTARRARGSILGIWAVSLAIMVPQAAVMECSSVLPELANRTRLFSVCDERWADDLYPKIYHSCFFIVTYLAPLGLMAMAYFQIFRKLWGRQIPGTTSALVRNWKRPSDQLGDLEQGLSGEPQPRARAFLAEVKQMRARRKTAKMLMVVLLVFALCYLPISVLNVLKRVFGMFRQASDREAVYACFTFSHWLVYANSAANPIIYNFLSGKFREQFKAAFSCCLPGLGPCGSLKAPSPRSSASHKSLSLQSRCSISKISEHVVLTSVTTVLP

human orexin receptor 2 = human orexin receptor 2 (Homo sapiens (Human), UniProt O43614); assay: Orexin antagonist activity, intracellular calcium FLIPR assay, RBL-2H3 cells expressing human orexin receptor 2; format: cell-based; settings: RBL-2H3 cells stably expressing human orexin receptor 2; orexin-A at approx. 80% maximal response; compound added 15 minutes before; read-out: Human Orexin2R IC50
Chain of human orexin receptor 2 (O43614 whole entry): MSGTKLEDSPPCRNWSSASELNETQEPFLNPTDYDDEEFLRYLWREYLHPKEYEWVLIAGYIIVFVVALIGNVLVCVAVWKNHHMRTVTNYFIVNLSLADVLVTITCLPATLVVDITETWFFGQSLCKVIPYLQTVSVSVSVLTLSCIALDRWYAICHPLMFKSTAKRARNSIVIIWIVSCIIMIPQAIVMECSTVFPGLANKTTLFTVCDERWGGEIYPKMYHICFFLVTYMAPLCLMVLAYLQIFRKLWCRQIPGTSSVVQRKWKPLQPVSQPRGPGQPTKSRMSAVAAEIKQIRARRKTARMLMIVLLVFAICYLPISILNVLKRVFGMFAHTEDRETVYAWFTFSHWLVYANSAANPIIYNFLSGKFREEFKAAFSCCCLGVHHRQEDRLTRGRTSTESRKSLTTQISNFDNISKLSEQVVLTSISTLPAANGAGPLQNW

pIC50 (human orexin receptor 1)	pIC50 (human orexin receptor 2)	SMILES
6.55	< 5.00	CN(c1cnc(C(F)(F)F)cn1)[C@H]1CCC[C@@H]1NC(=O)c1c(F)cccc1-n1nccn1 [Example 75, 2-Fluoro-N-[(1S,2S)-2-{methyl[5-(trifluoromethyl)pyrazin-2-yl]amino}cyclopentyl]-6-(2H-1,2,3-triazol-2-yl)benzamide]
7.48	< 5.00	Cc1nc(C(F)(F)F)cnc1N[C@H]1CCC[C@@H]1NC(=O)c1ncccc1-n1nccn1 [Example 76, N-[(1S,2S)-2-{[3-Methyl-5-(trifluoromethyl)pyrazin-2-yl]amino}cyclopentyl]-3-(2H-1,2,3-triazol-2-yl)pyridine-2-carboxamide]
7.92	< 5.00	C[C@]1(Nc2cnc(C(F)(F)F)cn2)CCC[C@@H]1NC(=O)c1ncccc1-n1nccn1 [Example 77, N-[(1S,2S)-2-Methyl-2-{[5-(trifluoromethyl)pyrazin-2-yl]amino}cyclopentyl]-3-(2H-1,2,3-triazol-2-yl)pyridine-2-carboxamide]
7.72	< 5.00	Cc1nc(C(F)(F)F)cnc1N[C@H]1CCC[C@@H]1NC(=O)c1ccccc1-n1nccn1 [Example 78, N-[(1S,2S)-2-{[3-Methyl-5-(trifluoromethyl)pyrazin-2-yl]amino}cyclopentyl]-2-(2H-1,2,3-triazol-2-yl)benzamide]
7.46	< 5.00	Cc1nc(C(F)(F)F)cnc1N[C@H]1CCC[C@@H]1NC(=O)c1ccccc1-c1ncccn1 [Example 79, N-[(1S,2S)-2-{[3-Methyl-5-(trifluoromethyl)pyrazin-2-yl]amino}cyclopentyl]-2-(pyrimidin-2-yl)benzamide]
7.46	< 5.00	Cc1nc(C(F)(F)F)cnc1N[C@H]1CCC[C@@H]1NC(=O)c1cc(F)ccc1-c1ncccn1 [Example 80, 5-Fluoro-N-[(1S,2S)-2-{[3-methyl-5-(trifluoromethyl)pyrazin-2-yl]amino}cyclopentyl]-2-(pyrimidin-2-yl)benzamide]
8.15	< 5.00	C[C@]1(Nc2cnc(C(F)(F)F)cn2)CCC[C@@H]1NC(=O)c1ccccc1-n1nccn1 [Example 81, N-[(1S,2S)-2-Methyl-2-{[5-(trifluoromethyl)pyrazin-2-yl]amino}cyclopentyl]-2-(2H-1,2,3-triazol-2-yl)benzamide]
7.68	5.12	CC1(Nc2cnc(C(F)(F)F)cn2)CCCC1NC(=O)c1ccccc1-n1nccn1 (stereo not drawn) [Example 82, N-(2-Methyl-2-{[5-(trifluoromethyl)pyrazin-2-yl]amino}cyclopentyl)-2-(2H-1,2,3-triazol-2-yl)benzamide]
5.60	5.85	C[C@@]1(Nc2cnc(C(F)(F)F)cn2)CCC[C@H]1NC(=O)c1ccccc1-n1nccn1 [Example 83, N-[(1R,2R)-2-Methyl-2-{[5-(trifluoromethyl)pyrazin-2-yl]amino}cyclopentyl]-2-(2H-1,2,3-triazol-2-yl)benzamide]
7.66	< 5.00	C[C@]1(Nc2cnc(C(F)(F)F)cn2)CCC[C@@H]1NC(=O)c1cc(F)ccc1-n1nccn1 [Example 84, 5-Fluoro-N-[(1S,2S)-2-methyl-2-{[5-(trifluoromethyl)pyrazin-2-yl]amino}cyclopentyl]-2-(2H-1,2,3-triazol-2-yl)benzamide]
7.74	< 5.00	C[C@]1(Nc2cnc(C(F)(F)F)cn2)CCC[C@@H]1NC(=O)c1ncccc1-n1cccn1 [Example 85, N-[(1S,2S)-2-Methyl-2-{[5-(trifluoromethyl)pyrazin-2-yl]amino}cyclopentyl]-3-(1H-pyrazol-1-yl)pyridine-2-carboxamide]
6.89	< 5.00	CCOc1cccnc1C(=O)N[C@H]1CCC[C@]1(C)Nc1cnc(C(F)(F)F)cn1 [Example 86, 3-Ethoxy-N-[(1S,2S)-2-methyl-2-{[5-(trifluoromethyl)pyrazin-2-yl]amino}cyclopentyl]pyridine-2-carboxamide]
8.10	< 5.00	C[C@]1(Nc2cnc(C(F)(F)F)cn2)CCC[C@@H]1NC(=O)c1c(Cl)cccc1-n1nccn1 [Example 87, 2-Chloro-N-[(1S,2S)-2-methyl-2-{[5-(trifluoromethyl)pyrazin-2-yl]amino}cyclopentyl]-6-(2H-1,2,3-triazol-2-yl)benzamide]
6.78	< 5.00	C[C@]1(Nc2cnc(C(F)(F)F)cn2)CCC[C@@H]1NC(=O)c1c(F)cccc1F [Example 88, 2,6-Difluoro-N-[(1S,2S)-2-methyl-2-{[5-(trifluoromethyl)pyrazin-2-yl]amino}cyclopentyl]benzamide]
6.85	< 5.00	C[C@]1(Nc2cnc(C(F)(F)F)cn2)CCC[C@@H]1NC(=O)c1ncccc1C1CC1 [Example 89, 3-Cyclopropyl-N-[(1S,2S)-2-methyl-2-{[5-(trifluoromethyl)pyrazin-2-yl]amino}cyclopentyl]pyridine-2-carboxamide]
7.17	< 5.00	C[C@]1(Nc2cnc(C(F)(F)F)cn2)CCC[C@@H]1NC(=O)c1ncccc1OC(F)(F)F [Example 90, N-[(1S,2S)-2-Methyl-2-{[5-(trifluoromethyl)pyrazin-2-yl]amino}cyclopentyl]-3-(trifluoromethoxy)pyridine-2-carboxamide]
8.22	< 5.00	C[C@]1(Nc2cnc(C(F)(F)F)cn2)CCC[C@@H]1NC(=O)c1ccccc1-c1ncccn1 [Example 91, N-[(1S,2S)-2-Methyl-2-{[5-(trifluoromethyl)pyrazin-2-yl]amino}cyclopentyl]-2-(pyrimidin-2-yl)benzamide]
8.10	5.25	C[C@]1(Nc2cnc(C(F)(F)F)cn2)CCC[C@@H]1NC(=O)c1cc(Cl)ccc1-n1nccn1 [Example 92, 5-Chloro-N-[(1S,2S)-2-methyl-2-{[5-(trifluoromethyl)pyrazin-2-yl]amino}cyclopentyl]-2-(2H-1,2,3-triazol-2-yl)benzamide]
7.46	< 5.00	CC1(Nc2ncc(C(F)(F)F)cn2)CCCC1NC(=O)c1ccccc1-n1nccn1 (stereo not drawn) [Example 93, N-(2-Methyl-2-{[5-(trifluoromethyl)pyrimidin-2-yl]amino}cyclopentyl)-2-(2H-1,2,3-triazol-2-yl)benzamide]
7.72	5.97	CC1(Nc2ccc(C(F)(F)F)cn2)CCCC1NC(=O)c1ccccc1-n1nccn1 (stereo not drawn) [Example 95, N-(2-Methyl-2-{[5-(trifluoromethyl)pyridin-2-yl]amino}cyclopentyl)-2-(2H-1,2,3-triazol-2-yl)benzamide]
7.07	5.87	CC1(Nc2ccc(OC(F)(F)F)cn2)CCCC1NC(=O)c1ccccc1-n1nccn1 (stereo not drawn) [Example 96, N-(2-Methyl-2-{[5-(trifluoromethoxy)pyridin-2-yl]amino}cyclopentyl)-2-(2H-1,2,3-triazol-2-yl)benzamide]
6.91	< 5.00	O=C(N[C@H]1CCC[C@@H]1Nc1ccc(C(F)(F)F)cn1)c1cc(Cl)ccc1-n1nccn1 [Example 97, 5-Chloro-2-(2H-1,2,3-triazol-2-yl)-N-[(1S,2S)-2-{[5-(trifluoromethyl)pyridin-2-yl]amino}cyclopentyl]benzamide]
6.80	< 5.00	O=C(N[C@H]1CCC[C@@H]1Nc1ccc(C(F)(F)F)cn1)c1cccc(F)c1-n1nccn1 [Example 98, 3-Fluoro-2-(2H-1,2,3-triazol-2-yl)-N-[(1S,2S)-2-{[5-(trifluoromethyl)pyridin-2-yl]amino}cyclopentyl]benzamide]
6.82	< 5.00	O=C(N[C@H]1CCC[C@@H]1Nc1ccc(C(F)(F)F)cn1)c1cc(F)cc(F)c1-n1nccn1 [Example 99, 3,5-Difluoro-2-(2H-1,2,3-triazol-2-yl)-N-[(1S,2S)-2-{[5-(trifluoromethyl)pyridin-2-yl]amino}cyclopentyl]benzamide]
6.89	< 5.00	O=C(N[C@H]1CCC[C@@H]1Nc1ccc(C(F)(F)F)cn1)c1ncccc1-n1nccn1 [Example 100, 3-(2H-1,2,3-Triazol-2-yl)-N-[(1S,2S)-2-{[5-(trifluoromethyl)pyridin-2-yl]amino}cyclopentyl]pyridine-2-carboxamide]
6.51	< 5.00	O=C(N[C@H]1CCC[C@@H]1Nc1ccc(C(F)(F)F)cn1)c1ncccc1-n1cccn1 [Example 101, 3-(1H-Pyrazol-1-yl)-N-[(1S,2S)-2-{[5-(trifluoromethyl)pyridin-2-yl]amino}cyclopentyl]pyridine-2-carboxamide]
7.34	< 5.00	O=C(N[C@H]1CCC[C@@H]1Nc1ccc(C(F)(F)F)cn1)c1c(F)cccc1-n1nccn1 [Example 102, 2-Fluoro-6-(2H-1,2,3-triazol-2-yl)-N-[(1S,2S)-2-{[5-(trifluoromethyl)pyridin-2-yl]amino}cyclopentyl]benzamide]
8.10	5.10	CC1(Nc2ncc(C(F)(F)F)cc2F)CCCC1NC(=O)c1ncccc1-n1nccn1 (stereo not drawn) [Example 103, N-(2-{[3-Fluoro-5-(trifluoromethyl)pyridin-2-yl]amino}-2-methylcyclopentyl)-3-(2H-1,2,3-triazol-2-yl)pyridine-2-carboxamide]
7.41	< 5.00	O=C(N[C@H]1CCC[C@@H]1Nc1ncc(C(F)(F)F)cc1F)c1ccccc1-n1nccn1 [Example 105, N-[(1S,2S)-2-{[3-Fluoro-5-(trifluoromethyl)pyridin-2-yl]amino}cyclopentyl]-2-(2H-1,2,3-triazol-2-yl)benzamide]
7.54	< 5.00	O=C(N[C@H]1CCC[C@@H]1Nc1ncc(C(F)(F)F)cc1Cl)c1ccccc1-n1nccn1 [Example 106, N-[(1S,2S)-2-{[3-Chloro-5-(trifluoromethyl)pyridin-2-yl]amino}cyclopentyl]-2-(2H-1,2,3-triazol-2-yl)benzamide]
